Experiment [1] deals with PSMA-positive cells (C4-2b and 22Rv1). Briefly: Cell viability assay (MTT), summary over PSMA-positive cancer cells. The format is cell-based, Human. The settings on record: blue light 458 nm; read-out: GI50 mean over PSMA-positive cancer cells, irradiated. As to the method: (§1) Cells were grown in humidified incubators at 37° C. in 5% CO2. Murine MC3T3 osteoblast and NIH-3T3 fibroblast cells-used as non-tumor cell models-were cultured in a-MEM medium and DMEM medium supplemented with 10% fetal bovine serum (FBS) and 1% Penicillin/Streptomycin (P/S) antibiotics, respectively. Human T24 bladder, MGHU3 bladder, Scaber bladder, A549 lung, MCF7 breast, MiaPaCa2 pancreas cancer cells were cultured in DMEM medium supplemented with 10% FBS and 1% P/S antibiotics. Human ASPC-1 pancreas, PC-3 prostate, DU-145 prostate, C4-2B prostate and 22rV1 prostate cancer cells were cultured in RPMI medium supplemented with 10% FBS and 1% P/S antibiotics. Human Hela cervix and HepG2 liver cancer cells were cultured EMEM medium supplemented with 10% FBS and 1% P/S antibiotics.
(§2) MTT reagent (3-(4,5-dimethylthiazol-2-yl)-2,5-diphenyltetrazolium bromide) was used to determine cell death as originally described by Mosmann. […] The concentration of the complexes was calculated based on the elemental composition of the complexes determined by the elemental analyses. […] After solubilization with 500 μL of DMSO, formazan was quantified spectrophotometrically with a microplate reader at 570 nm absorbance (ClarioSTAR, BMG LabTech). […] All the results were calculated from data obtained in at least three independent experiments performed in triplicate. […]

The nature of experiment [2]: Singlet oxygen (1O2) production, ABDA indicator, blue LED 458 nm. The note with it: 4.5 mWcm^−2, 5-45 min, PBS pH 7.4. As to the method: The detection of […] generation of iridium complexes was measured with 9,10-anthracenediyl-bis(methylene)dimalonic acid (ABDA) as an ^1O2 indicator and Ru(bpy)3Cl2 as a standard according to a modified reported method. Experiments were conducted using ABDA (50 μM) in phosphate buffered solution (PBS, pH 7.4), the respective iridium complex, i.e. (I-e), (I-g), (I-h), (I-j), (II-e), (II-g), (II-h), (II-j), (III-i), (III-j), (III-k), (III-h), (IV-i), (IV-j), (IV-k), (IV-h) and Ru(bpy)3Cl2 (5 μM) in a mixture of H2O/CH3CN (50/50) with a ratio ABDA/complex of […] and a final volume of 3 mL. ABDA oxidation was monitored by UV-vis spectrophotometry. The samples were irradiated with a blue custom-made LED plate (458 nm, 4.5 mWcm^−2). During irradiation UV-vis absorption spectra were recorded at 5, 10, 15, 20, 30 and 45 min. The ^1O2 generation was followed by monitoring the absorption spectral change at 380 nm of ABDA versus time.

Experiment [3] concerns PSMA-negative cells (PC-3 and DU145). Briefly: Cell viability assay (MTT), summary over PSMA-negative cancer cells. It is filed as cell-based, Human. The settings on record: blue light 458 nm; read-out: GI50 mean over PSMA-negative cancer cells, irradiated. As to the method: as §1, §2
For experiment [4], the system named is DU-145 prostate cancer cells (PSMA-negative). Briefly: Cell viability assay (MTT), dark and blue light. The format is cell-based, Human. In outline:
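Cells in RPMI with 10% FBS were treated with complexes (0.1% v/v DMSO) for 72 h in the dark, or for 8 h then irradiated 10 min with 458 nm blue LEDs (9.6 W) and kept dark to 72 h. Viability read by MTT formazan absorbance at 570 nm.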

For orientation: GI50 means the concentration giving 50% growth inhibition.

Read-outs that look alike come from different tables or passages of the source.

Consider `F[P-](F)(F)(F)(F)F.O=C(O)CC[C@H](NC(=O)N[C@@H](CCCCNC(=O)CCn1cc[n+]2[c]1[Ir-3]13([c]4ccccc4-c4c5ccccc5cc[n+]41)([c]1ccccc1-c1c4ccccc4cc[n+]13)[n+]1ccccc1-2)C(=O)O)C(=O)O` [III-h], for which the concentration for 50% growth inhibition (GI50) in experiment [1] was 310 nM; in experiment [3], 1600 nM; in experiment [4] (8 h in the dark, blue light 458 nm 10 min, then dark up to 72 h, read-out: GI50 DU145 Blue), 1410 nM; in experiment [4] (DU145, blue light, read-out: GI50), 1410 nM; in experiment [4] (DU145, dark, read-out: GI50) it was 26100 nM; in experiment [4] (in the dark, 72 h, read-out: GI50 DU145 Dark), 26100 nM. In addition, in experiment [2], the “depletion of the ABDA absorbance at 380 nm (1O2 production)” value is recorded as “fast depletion of the ABDA absorbance at 380 nm”. Further, the “Photosensitizing index (PI)” value in experiment [4] (DU145, dark vs blue light) was determined as 18.5. Further, in experiment [4] (blue light 458 nm), the “SI (vs MC3T3) DU145 Blue” value was 5.9. Moreover, the “SI (vs MC3T3) DU145 Dark” value in experiment [4] (dark) is listed as 2.0. Further, the “SI (vs NIH-3T3) DU145 Dark” value in experiment [4] (dark) was >3.8.

(Values after patent publication US20260209260A1, “VECTORIZED NHC IRIDIUM(III) COMPLEXES AND USE THEREOF IN PHOTODYNAMIC THERAPY AND/OR DIAGNOSTIC” (CENTRE NATIONAL DE LA RECHERCHE SCIENTIFIQUE, priority 2022, published 2026).)
